# Test results: the supplement of paper PMC10307832
# Legend:
# Assay in all cases: relative viability (nuclei count vs DMSO), 5 days (fraction); higher = more cells survive
# ABC-1 = tested on: ABC-1
# Method in brief: (§1)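 Relative viability divides the nuclei count in treated wells by that in vehicle wells. Lung cancer cell lines were seeded in 1536-well plates, dosed by pin tool the next day, and fixed and stained after 5 days in one step with final 0.05% Triton X-100, 1% formaldehyde and 1 ug/ml Hoechst. Dosing was a single drug or a fixed anchor-drug dose plus five library-drug doses (not always all listed) in √10 steps, and values are medians of duplicate plates imaged at 4×.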
# NCI-H1792 = tested on: NCI-H1792
# Method in brief: as §1
# EPLC-272H = tested on: EPLC-272H
# Method in brief: as §1
# NCI-H460 = tested on: NCI-H460
# Method in brief: as §1
# NCI-H1651 = tested on: NCI-H1651
# Method in brief: as §1
# NCI-H2228 = tested on: NCI-H2228
# Method in brief: as §1
# SK-MES-1 = tested on: SK-MES-1
# Method in brief: as §1
# NCI-H650 = tested on: NCI-H650
# Method in brief: as §1
# NCI-H661 = tested on: NCI-H661
# Method in brief: as §1
# HCC-78 = tested on: HCC-78
# Method in brief: as §1
# LCLC-97TM1 = tested on: LCLC-97TM1
# Method in brief: as §1
# LCLC-103H = tested on: LCLC-103H
# Method in brief: as §1
# NCI-H1734 = tested on: NCI-H1734
# Method in brief: as §1
# 201T = tested on: 201T
# Method in brief: as §1
# NCI-H1993 = tested on: NCI-H1993
# Method in brief: as §1
# SW 1573 = tested on: SW 1573
# Method in brief: as §1
# LOU-NH91 = tested on: LOU-NH91
# Method in brief: as §1
# NCI-H1355 = tested on: NCI-H1355
# Method in brief: as §1
# NCI-H1793 = tested on: NCI-H1793
# Method in brief: as §1
# RERF-LC-KJ = tested on: RERF-LC-KJ
# Method in brief: as §1
# NCI-H596 = tested on: NCI-H596
# Method in brief: as §1
# PC-3 [JPC-3] = tested on: PC-3 [JPC-3]
# Method in brief: as §1
# NCI-H1915 = tested on: NCI-H1915
# Method in brief: as §1
structure (smiles),measurement,setting,value
Oc1nc(-c2ccc(C(F)(F)F)cc2)nc2c1CSCC2 [XAV939] + Cc1nc(Nc2ncc(C(=O)Nc3c(C)cccc3Cl)s2)cc(N2CCN(CCO)CC2)n1 [Dasatinib] (partner 0.075 µM),relative viability,ABC-1; first compound 0.08 µM,0.546
same,relative viability,ABC-1; first compound 0.253 µM,0.534
same,relative viability,ABC-1; first compound 0.8 µM,0.467
same,relative viability,ABC-1; first compound 2.53 µM,0.415
same,relative viability,NCI-H1792; first compound 0.08 µM,0.877
same,relative viability,NCI-H1792; first compound 0.253 µM,0.809
same,relative viability,NCI-H1792; first compound 0.8 µM,0.87
same,relative viability,NCI-H1792; first compound 2.53 µM,0.725
same,relative viability,EPLC-272H; first compound 0.08 µM,0.385
same,relative viability,EPLC-272H; first compound 0.253 µM,0.403
same,relative viability,EPLC-272H; first compound 0.8 µM,0.355
same,relative viability,EPLC-272H; first compound 2.53 µM,0.247
same,relative viability,NCI-H460; first compound 0.08 µM,0.479
same,relative viability,NCI-H460; first compound 0.253 µM,0.533
same,relative viability,NCI-H460; first compound 0.8 µM,0.482
same,relative viability,NCI-H460; first compound 2.53 µM,0.467
same,relative viability,NCI-H1651; first compound 0.08 µM,0.389
same,relative viability,NCI-H1651; first compound 0.253 µM,0.366
same,relative viability,NCI-H1651; first compound 0.8 µM,0.362
same,relative viability,NCI-H1651; first compound 2.53 µM,0.401
same,relative viability,NCI-H2228; first compound 0.08 µM,0.496
same,relative viability,NCI-H2228; first compound 0.253 µM,0.426
same,relative viability,NCI-H2228; first compound 0.8 µM,0.473
same,relative viability,NCI-H2228; first compound 2.53 µM,0.382
same,relative viability,SK-MES-1; first compound 0.08 µM,0.339
same,relative viability,SK-MES-1; first compound 0.253 µM,0.344
same,relative viability,SK-MES-1; first compound 0.8 µM,0.392
same,relative viability,SK-MES-1; first compound 2.53 µM,0.284
same,relative viability,NCI-H650; first compound 0.08 µM,0.497
same,relative viability,NCI-H650; first compound 0.253 µM,0.501
same,relative viability,NCI-H650; first compound 0.8 µM,0.444
same,relative viability,NCI-H650; first compound 2.53 µM,0.414
same,relative viability,NCI-H661; first compound 0.08 µM,1
same,relative viability,NCI-H661; first compound 0.253 µM,0.851
same,relative viability,NCI-H661; first compound 0.8 µM,0.812
same,relative viability,NCI-H661; first compound 2.53 µM,0.637
same,relative viability,HCC-78; first compound 0.08 µM,0.37
same,relative viability,HCC-78; first compound 0.253 µM,0.398
same,relative viability,HCC-78; first compound 0.8 µM,0.338
same,relative viability,HCC-78; first compound 2.53 µM,0.399
same,relative viability,LCLC-97TM1; first compound 0.08 µM,0.981
same,relative viability,LCLC-97TM1; first compound 0.253 µM,0.851
same,relative viability,LCLC-97TM1; first compound 0.8 µM,0.964
same,relative viability,LCLC-97TM1; first compound 2.53 µM,0.977
same,relative viability,LCLC-103H; first compound 0.08 µM,0.633
same,relative viability,LCLC-103H; first compound 0.253 µM,0.553
same,relative viability,LCLC-103H; first compound 0.8 µM,0.55
same,relative viability,LCLC-103H; first compound 2.53 µM,0.456
same,relative viability,NCI-H1734; first compound 0.08 µM,0.501
same,relative viability,NCI-H1734; first compound 0.253 µM,0.476
same,relative viability,NCI-H1734; first compound 0.8 µM,0.419
same,relative viability,NCI-H1734; first compound 2.53 µM,0.357
same,relative viability,201T; first compound 0.08 µM,0.432
same,relative viability,201T; first compound 0.253 µM,0.385
same,relative viability,201T; first compound 0.8 µM,0.443
same,relative viability,201T; first compound 2.53 µM,0.366
same,relative viability,NCI-H1993; first compound 0.08 µM,0.52
same,relative viability,NCI-H1993; first compound 0.253 µM,0.52
same,relative viability,NCI-H1993; first compound 0.8 µM,0.557
same,relative viability,NCI-H1993; first compound 2.53 µM,0.535
same,relative viability,SW 1573; first compound 0.08 µM,0.605
same,relative viability,SW 1573; first compound 0.253 µM,0.506
same,relative viability,SW 1573; first compound 0.8 µM,0.43
same,relative viability,SW 1573; first compound 2.53 µM,0.241
same,relative viability,LOU-NH91; first compound 0.08 µM,0.519
same,relative viability,LOU-NH91; first compound 0.253 µM,0.5
same,relative viability,LOU-NH91; first compound 0.8 µM,0.501
same,relative viability,LOU-NH91; first compound 2.53 µM,0.526
same,relative viability,NCI-H1355; first compound 0.08 µM,0.569
same,relative viability,NCI-H1355; first compound 0.253 µM,0.495
same,relative viability,NCI-H1355; first compound 0.8 µM,0.507
same,relative viability,NCI-H1355; first compound 2.53 µM,0.356
same,relative viability,NCI-H1793; first compound 0.08 µM,0.379
same,relative viability,NCI-H1793; first compound 0.253 µM,0.339
same,relative viability,NCI-H1793; first compound 0.8 µM,0.399
same,relative viability,NCI-H1793; first compound 2.53 µM,0.419
same,relative viability,RERF-LC-KJ; first compound 0.08 µM,0.77
same,relative viability,RERF-LC-KJ; first compound 0.253 µM,0.643
same,relative viability,RERF-LC-KJ; first compound 0.8 µM,0.55
same,relative viability,RERF-LC-KJ; first compound 2.53 µM,0.46
same,relative viability,NCI-H596; first compound 0.08 µM,0.584
same,relative viability,NCI-H596; first compound 0.253 µM,0.549
same,relative viability,NCI-H596; first compound 0.8 µM,0.708
same,relative viability,NCI-H596; first compound 2.53 µM,0.563
same,relative viability,PC-3 [JPC-3]; first compound 0.08 µM,1.09
same,relative viability,PC-3 [JPC-3]; first compound 0.253 µM,0.899
same,relative viability,PC-3 [JPC-3]; first compound 0.8 µM,0.938
same,relative viability,PC-3 [JPC-3]; first compound 2.53 µM,1.05
same,relative viability,NCI-H1915; first compound 0.08 µM,0.353
same,relative viability,NCI-H1915; first compound 0.253 µM,0.214
same,relative viability,NCI-H1915; first compound 0.8 µM,0.311
same,relative viability,NCI-H1915; first compound 2.53 µM,0.298
